Where two headings read alike, the source gives them in different places.
Columns and labels:
Test in all cases: NCI anticancer screen, SRB assay, 48 h
Assay type in all cases: cell-based, human
786-0 (renal) = settings: Homo sapiens
Summary of the method: (§1)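 Sulforhodamine B protein assay read cell growth after 48 h of continuous compound exposure. Dose-response curves per cell line used at least five 10-fold-diluted concentrations, within a panel of fifty-three human lines from nine tumour types.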

A498 (renal) = settings: Homo sapiens
Summary of the method: as §1

[1] = test system: A549/ATCC (non-small cell lung); settings: Homo sapiens
Summary of the method: as §1

ACHN (renal) = settings: Homo sapiens
Summary of the method: as §1

CAKI-1 (renal) = settings: Homo sapiens
Summary of the method: as §1

[2] = test system: EKVX (non-small cell lung); settings: Homo sapiens
Summary of the method: as §1

[3] = test system: HOP-92 (non-small cell lung); settings: Homo sapiens
Summary of the method: as §1

HS 578T (breast) = settings: Homo sapiens
Summary of the method: as §1

[4] = test system: K-562 (leukemia cell line); settings: Homo sapiens
Summary of the method: as §1

KM12 (colon) = settings: Homo sapiens
Summary of the method: as §1

MALME-3M (melanoma) = settings: Homo sapiens
Summary of the method: as §1

[5] = test system: NCI-H226 (non-small cell lung); settings: Homo sapiens
Summary of the method: as §1

[6] = test system: NCI-H23 (non-small cell lung); settings: Homo sapiens
Summary of the method: as §1

[7] = test system: NCI-H460 (non-small cell lung); settings: Homo sapiens
Summary of the method: as §1

OVCAR-8 (ovarian) = settings: Homo sapiens
Summary of the method: as §1

SF-539 (CNS) = settings: Homo sapiens
Summary of the method: as §1

SK-MEL-28 (melanoma) = settings: Homo sapiens
Summary of the method: as §1

SK-MEL-5 (melanoma) = settings: Homo sapiens
Summary of the method: as §1

SK-OV-3 (ovarian) = settings: Homo sapiens, 48 h exposure, SRB, read-out: GI50
Summary of the method: as §1

[8] = 48 h exposure, SRB, read-out: GI50
[9] = read-out: pGI50 (-log of molar concentration causing 50% inhibition of net cell growth) (converted)

Compound: COc1cc(/C=C/C(=O)c2cccc(-n3cc(-c4ccccc4)[nH]c3=O)c2)cc(OC)c1OC [5a, 4-phenyl-1-3-[(E)-3-(3,4,5-trimethoxyphenyl)-2-propenoyl]phenyl-2,3-dihydro-1H-2-imidazolone]
- GI50 (786-0 (renal); [8]): 1.38 µM
- GI50 (786-0 (renal); [9]): 1.38 µM
- GI50 (A498 (renal); [8]): 2.65 µM
- GI50 (A498 (renal); [9]): 2.63 µM
- GI50 [1, 8]: 4.03 µM
- GI50 [1, 9]: 4.07 µM
- GI50 (ACHN (renal); [8]): 1.6 µM
- GI50 (ACHN (renal); [9]): 1.58 µM
- GI50 (CAKI-1 (renal); [8]): 1.75 µM
- GI50 (CAKI-1 (renal); [9]): 1.74 µM
- GI50 [2, 8]: 2.3 µM
- GI50 [2, 9]: 2.29 µM
- GI50 [3, 8]: 10.8 µM
- GI50 [3, 9]: 10.7 µM
- GI50 (HS 578T (breast); [8]): 3.41 µM
- GI50 (HS 578T (breast); [9]): 3.39 µM
- GI50 ([4]; K562, 48 h exposure, SRB, read-out: GI50): 0.5 µM
- GI50 ([4]; K562, read-out: pGI50 (-log of molar concentration causing 50% inhibition of net cell growth) (converted)): 0.501 µM
- GI50 (KM12 (colon); [8]): 1.37 µM
- GI50 (KM12 (colon); [9]): 1.38 µM
- GI50 (MALME-3M (melanoma); Malme-3M, read-out: pGI50 (-log of molar concentration causing 50% inhibition of net cell growth) (converted)): 1.32 µM
- GI50 (MALME-3M (melanoma); MALME-3M, 48 h exposure, SRB, read-out: GI50): 1.31 µM
- GI50 [5, 8]: 14.6 µM
- GI50 [5, 9]: 14.5 µM
- GI50 [6, 8]: 1.43 µM
- GI50 [6, 9]: 1.45 µM
- GI50 [7, 8]: 1.4 µM
- GI50 [7, 9]: 1.41 µM
- GI50 (OVCAR-8 (ovarian); [8]): 1.62 µM
- GI50 (OVCAR-8 (ovarian); [9]): 1.62 µM
- GI50 (SF-539 (CNS); [8]): 1.68 µM
- GI50 (SF-539 (CNS); [9]): 1.7 µM
- GI50 (SK-MEL-28 (melanoma); [8]): 1.74 µM
- GI50 (SK-MEL-28 (melanoma); [9]): 1.74 µM
- GI50 (SK-MEL-5 (melanoma); [8]): 1.4 µM
- GI50 (SK-MEL-5 (melanoma); [9]): 1.41 µM
- GI50 (SK-OV-3 (ovarian)): 3.27 µM

From patent US8889874B2, “Imidazolone-chalcone derivatives as potential anticancer agent and process for the preparation thereof” (Council of Scientific and Industrial Research, priority 2010, dated 2014)
